Results from BigSolDB 2.1.

CC(=O)OC(c1ccccc1)C(Cl)(Cl)Cl (stereo unspecified)
solubility (mole fraction)
Conditions	in acetic acid	in acetone	in acetonitrile	in ethanol	in ethyl acetate	in ethyl formate	in isopropanol	in methanol	in n-propanol
288.15 K	0.0201	0.0931	0.036	0.00865	0.117	0.0868	0.00712	0.00659	0.0105
293.15 K	0.0271	0.111	0.0408	0.0108	0.137	0.105	0.00929	0.00757	0.0132
298.15 K	0.0379	0.133	0.0579	0.0134	0.159	0.132	0.0129	0.00931	0.0164
303.15 K	0.0482	0.158	0.0719	0.0171	0.19	0.165	0.0169	0.0121	0.0216
308.15 K	0.0605	0.193	0.0989	0.0217	0.218	0.198	0.0211	0.0153	0.0287
313.15 K	0.0767	0.232	0.13	0.029	0.251	0.236	0.0279	0.02	0.0375
318.15 K	0.1	0.273	0.168	0.0406	0.287	0.274	0.0382	0.0264	0.0496
323.15 K	0.127	0.32	0.218	0.0555	0.333	0.314	0.0538	0.0342	0.0667
328.15 K	0.167	0.377	0.286	0.0735	0.38	0.363	0.0742	0.0447	0.0905
